Literature values in patent US7041655B1, “Capillary membrane stabilization and reduction of tissue injury through use of IV biodegradable macromolecules with antioxidants and/or other chemicals” (priority 1996, dated 2006).

Columns and labels:
[1] = used for fluid replacement therapy
[2] = in 24 hours; molecules below 50,000 daltons rapidly eliminated by renal excretion
[3] = intravenous infusion

| part of a given total dose appearing in the urine [2] | Substance | toxic reactions observed [1] | duration of improved hemodynamic status of the subject [3] [h] | time over which the expansion of plasma volume decreases ([3]; expansion slightly in excess of the volume infused) [h] |
| --- | --- | --- | --- | --- |
|  | dextran | Few toxic reactions |  |  |
| approximately 40% | hydroxyethyl starch | Few toxic reactions | ≥ 24 | 24 to 36 |
